In paper PMC2664976 (The Journal of General Physiology, 2009):

Columns and labels:
[1] = biological target: wtCFTR (Homo sapiens, UniProt P13569); assay: whole cell patch clamp, HEK […] chloride current; type: cell-based
[2] = biological target: T1, SLC26A9 (Homo sapiens, UniProt Q7LBE3); assay: whole cell patch clamp, HEK […] chloride current; type: cell-based; settings: read-out: % inhibition at 50 μM
T1 sequence (Q7LBE3 1-791): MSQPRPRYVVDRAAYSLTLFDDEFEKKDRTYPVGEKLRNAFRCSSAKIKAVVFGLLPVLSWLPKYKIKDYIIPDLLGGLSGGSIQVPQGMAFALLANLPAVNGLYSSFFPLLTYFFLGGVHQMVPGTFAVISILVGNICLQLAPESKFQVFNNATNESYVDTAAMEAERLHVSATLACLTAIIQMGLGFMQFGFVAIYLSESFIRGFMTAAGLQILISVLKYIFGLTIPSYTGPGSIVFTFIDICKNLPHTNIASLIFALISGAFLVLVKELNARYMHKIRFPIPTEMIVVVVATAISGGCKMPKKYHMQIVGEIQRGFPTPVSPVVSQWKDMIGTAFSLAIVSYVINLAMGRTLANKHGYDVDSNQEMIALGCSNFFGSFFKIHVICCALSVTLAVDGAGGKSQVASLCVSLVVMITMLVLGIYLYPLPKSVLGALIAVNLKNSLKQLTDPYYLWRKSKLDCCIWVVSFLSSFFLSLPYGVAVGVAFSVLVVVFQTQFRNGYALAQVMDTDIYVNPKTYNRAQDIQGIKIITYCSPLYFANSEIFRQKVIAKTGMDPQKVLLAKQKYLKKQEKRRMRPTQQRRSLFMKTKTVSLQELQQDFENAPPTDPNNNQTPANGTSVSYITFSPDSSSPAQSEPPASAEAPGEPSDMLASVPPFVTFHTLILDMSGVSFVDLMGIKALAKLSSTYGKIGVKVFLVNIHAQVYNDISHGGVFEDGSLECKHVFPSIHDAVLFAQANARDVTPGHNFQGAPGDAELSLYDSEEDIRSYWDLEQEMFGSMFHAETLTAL

wtCFTR, sequence (P13569 whole entry): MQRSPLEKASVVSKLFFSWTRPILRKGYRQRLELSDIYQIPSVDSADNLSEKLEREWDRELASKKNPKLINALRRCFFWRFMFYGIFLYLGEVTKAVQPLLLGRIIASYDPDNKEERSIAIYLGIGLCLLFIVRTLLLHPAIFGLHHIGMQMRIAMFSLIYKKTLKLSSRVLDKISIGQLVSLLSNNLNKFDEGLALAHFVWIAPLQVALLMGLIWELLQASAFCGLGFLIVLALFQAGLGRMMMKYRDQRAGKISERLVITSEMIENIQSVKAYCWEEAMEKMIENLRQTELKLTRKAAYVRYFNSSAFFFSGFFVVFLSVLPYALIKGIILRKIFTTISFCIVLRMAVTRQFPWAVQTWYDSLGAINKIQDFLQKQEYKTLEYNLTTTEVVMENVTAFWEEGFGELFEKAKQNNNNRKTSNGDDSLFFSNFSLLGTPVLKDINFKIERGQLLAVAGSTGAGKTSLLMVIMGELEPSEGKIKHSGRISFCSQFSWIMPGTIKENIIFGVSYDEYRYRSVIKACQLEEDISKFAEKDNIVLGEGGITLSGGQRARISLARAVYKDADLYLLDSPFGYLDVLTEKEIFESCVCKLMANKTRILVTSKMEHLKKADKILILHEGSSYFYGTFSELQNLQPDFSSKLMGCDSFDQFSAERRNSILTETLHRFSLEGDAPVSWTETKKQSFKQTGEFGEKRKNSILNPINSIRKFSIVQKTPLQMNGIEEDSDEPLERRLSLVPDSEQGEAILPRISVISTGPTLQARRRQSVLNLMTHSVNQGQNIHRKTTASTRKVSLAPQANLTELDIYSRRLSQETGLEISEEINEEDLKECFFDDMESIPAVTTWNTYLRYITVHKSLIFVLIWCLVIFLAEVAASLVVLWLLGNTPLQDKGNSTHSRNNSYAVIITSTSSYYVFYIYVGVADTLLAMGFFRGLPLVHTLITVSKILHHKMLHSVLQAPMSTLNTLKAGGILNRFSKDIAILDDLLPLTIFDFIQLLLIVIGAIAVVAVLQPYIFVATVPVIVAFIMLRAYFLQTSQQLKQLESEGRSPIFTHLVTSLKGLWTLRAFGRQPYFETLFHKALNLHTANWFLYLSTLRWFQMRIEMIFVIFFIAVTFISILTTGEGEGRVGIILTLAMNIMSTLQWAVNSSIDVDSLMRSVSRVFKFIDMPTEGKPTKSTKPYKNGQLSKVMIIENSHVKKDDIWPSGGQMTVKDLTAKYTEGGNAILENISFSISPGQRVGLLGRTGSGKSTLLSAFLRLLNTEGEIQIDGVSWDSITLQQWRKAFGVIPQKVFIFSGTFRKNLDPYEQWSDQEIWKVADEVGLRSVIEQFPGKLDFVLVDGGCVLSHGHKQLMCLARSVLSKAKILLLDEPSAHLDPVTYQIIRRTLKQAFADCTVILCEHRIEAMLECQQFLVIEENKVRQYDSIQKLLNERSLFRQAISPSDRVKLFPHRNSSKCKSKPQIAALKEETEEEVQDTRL

## O=C(CNc1ccc2ccccc2c1)NN=Cc1cc(Br)c(O)c(Br)c1O [GlyH-101]
[1]; read-out: % inhibition (GlyH-101, 50 μM)
  inhibition at 50 µM: 90 ± 2%
[2]
  inhibition at 50 µM: 71 ± 4%

## COc1ccc(Cl)cc1C(=O)NCCc1ccc(S(=O)(=O)NC(=O)NC2CCCCC2)cc1 [glibenclamide]
[1]; read-out: % inhibition (glibenclamide, 100 μM)
  inhibition at 100 µM: 52 ± 10%
